Here are results for 48 compounds from the Biogen ADME set (Fang et al. 2023).

≈ marks a conversion by molar mass, not a printed value.

For the series the following is noted: for aqueous solubility: pH 6.8.

For the compound `COc1ccc2c(c1)CC[C@@H]1[C@@H]2CC[C@]2(C)[C@@H](NCCCCCCN3C(=O)C=CC3=O)CC[C@@H]12`, the intrinsic clearance, human liver microsomes worked out at 6.09 mL/min/kg and the intrinsic clearance, rat liver microsomes turned out to be 38.7 mL/min/kg.
As for `COc1ccc(C2(NCc3cccc4ncccc34)CC2)cc1`, the MDR1-MDCK efflux ratio was determined as 0.483; the intrinsic clearance, human liver microsomes was determined as 261 mL/min/kg; the intrinsic clearance, rat liver microsomes came to 1340 mL/min/kg; the aqueous solubility was 55.5 µg/mL (≈ 182 µM).
For `Cc1nn(C)cc1CNc1nc(-c2cnccn2)nc2sc3c(c12)CCCC3`, the MDR1-MDCK efflux ratio came to 1.92; the intrinsic clearance, human liver microsomes worked out at 273 mL/min/kg; the intrinsic clearance, rat liver microsomes came to 2410 mL/min/kg; the aqueous solubility was 50.6 µg/mL (≈ 129 µM).
Take `O=C1N=C(N2CCN(c3ccccc3)CC2)S/C1=C\c1ccc(O)cc1O`: the MDR1-MDCK efflux ratio is 4.26 and the aqueous solubility worked out at 0.85 µg/mL (≈ 2.23 µM).
With `Cc1nc(-c2cnn(C)c2-c2ccc(C(F)(F)F)cn2)c2c(N3CCC3)ncnn12`, the MDR1-MDCK efflux ratio worked out at 12.2; the intrinsic clearance, human liver microsomes was found to be 54.3 mL/min/kg; the intrinsic clearance, rat liver microsomes worked out at 294 mL/min/kg; the aqueous solubility was found to be 65.1 µg/mL (≈ 157 µM).
The matching figures for `CN(C)c1ccc(Cn2c(=O)[nH]c3ccccc3c2=O)cn1`: 4.71, 9.13 mL/min/kg, 368 mL/min/kg and 2.6 µg/mL (≈ 8.77 µM).
The compound `CC(C)(C)OC(=O)N1CCCN1C(=O)c1cc2cc(Cl)ccc2[nH]1` registered an intrinsic clearance, human liver microsomes of 47.2 mL/min/kg and an intrinsic clearance, rat liver microsomes of 687 mL/min/kg.
Turning to `Cc1csc(Cc2nc(-c3ccc(O)cc3)no2)n1`, the MDR1-MDCK efflux ratio was determined as 0.531; the intrinsic clearance, human liver microsomes came out at 15.1 mL/min/kg; the intrinsic clearance, rat liver microsomes turned out to be 288 mL/min/kg.
On to `COc1ccc(-c2csc(CC(N)=O)n2)cc1Br`, for which the aqueous solubility came out at 37.5 µg/mL (≈ 115 µM).
For the compound `COc1cccc(Cn2cnc3c(c2=O)COCC3)c1Cl`, the MDR1-MDCK efflux ratio is 0.9; the intrinsic clearance, human liver microsomes stood at 5.71 mL/min/kg; the intrinsic clearance, rat liver microsomes stood at 138 mL/min/kg.
Consider `c1ccc(-c2c(-c3ccc(OCCN4CCCC4)cc3)[nH]c3ncnc(NCC4SCCS4)c23)cc1`, for which the MDR1-MDCK efflux ratio came to 25; the intrinsic clearance, human liver microsomes was 80.2 mL/min/kg; the intrinsic clearance, rat liver microsomes stood at 165 mL/min/kg; the aqueous solubility is 3.72 µg/mL (≈ 7.19 µM).
For `COCC(C)(C)CNC(=O)C1(Cn2cccn2)CC1`, the intrinsic clearance, human liver microsomes worked out at 13 mL/min/kg and the intrinsic clearance, rat liver microsomes worked out at 188 mL/min/kg.
With `Cc1ccc(C)c(S(=O)(=O)N2CCCN(CCn3cccn3)CC2)c1`, the MDR1-MDCK efflux ratio turned out to be 1.14; the intrinsic clearance, human liver microsomes came out at 207 mL/min/kg; the intrinsic clearance, rat liver microsomes was 2010 mL/min/kg; the aqueous solubility amounted to 30.5 µg/mL (≈ 84.1 µM).
Take `CCN(CCO)Cc1nc2cc(OC)c(OC)cc2c(=O)[nH]1`: the MDR1-MDCK efflux ratio stood at 31.2; the intrinsic clearance, human liver microsomes was at most 4.74 mL/min/kg; the intrinsic clearance, rat liver microsomes is at most 10.7 mL/min/kg.
Consider `O=C(Nc1cccnc1)c1ccccc1Cc1ccccc1`, for which the MDR1-MDCK efflux ratio is 0.612; the intrinsic clearance, human liver microsomes is 33.9 mL/min/kg; the intrinsic clearance, rat liver microsomes was 461 mL/min/kg; the aqueous solubility was 70.5 µg/mL (≈ 245 µM).
Consider `c1ccc2[nH]c(C3CCNCC3)nc2c1`, for which the aqueous solubility was 56.3 µg/mL (≈ 280 µM).
As for `Cc1ccc2[nH]c(C3CCN(C)CC3)nc2c1`, the MDR1-MDCK efflux ratio came to 2.88; the intrinsic clearance, human liver microsomes was 88.3 mL/min/kg; the intrinsic clearance, rat liver microsomes was determined as 685 mL/min/kg; the aqueous solubility is 57.3 µg/mL (≈ 250 µM).
Regarding `O=C(NCCc1nnc2n1CCC2)c1ccc2c(c1)CCC2`, the MDR1-MDCK efflux ratio was 82.7; the intrinsic clearance, human liver microsomes was at most 4.74 mL/min/kg; the intrinsic clearance, rat liver microsomes was 45.1 mL/min/kg; the aqueous solubility was found to be 23.6 µg/mL (≈ 79.8 µM).
In the case of `CC(C)Cc1cc(CN2CCN(S(=O)(=O)N3CCOCC3)CC2)n[nH]1`, the MDR1-MDCK efflux ratio was 23.3; the intrinsic clearance, human liver microsomes came out at 21.5 mL/min/kg; the intrinsic clearance, rat liver microsomes was determined as 284 mL/min/kg.
The matching figures for `CCCN(CCC1=CCCCC1)C(=O)Cc1n[nH]c(=O)[nH]1`: 11.3, at most 4.74 mL/min/kg and 1270 mL/min/kg.
Consider `COc1ccc(CCn2c(C)c3c(=O)n(-c4nc5ccccc5s4)[nH]c3cc2=O)cc1`, for which the intrinsic clearance, human liver microsomes is 53.7 mL/min/kg; the intrinsic clearance, rat liver microsomes was 892 mL/min/kg; the aqueous solubility was found to be 22.5 µg/mL (≈ 52.1 µM).
In the case of `Cc1ccc2occ(CN3C[C@H]4CCCN4C[C@H]3C)c(=O)c2c1`, the MDR1-MDCK efflux ratio is 0.849; the intrinsic clearance, human liver microsomes is 24 mL/min/kg; the intrinsic clearance, rat liver microsomes was 956 mL/min/kg.
The matching figures for `CC(=O)c1cc(Br)cc(F)c1OCc1ccccn1`: 0.622, 66 mL/min/kg and 316 mL/min/kg.
For `CC(C)N(C)S(=O)(=O)NCCCc1nc2cc(Cl)ccc2[nH]1` the same measures were 16.7, 134 mL/min/kg and 2500 mL/min/kg.
For the compound `Cc1cccc(Cl)c1-n1c(C)n[nH]c1=O`, the aqueous solubility came to 16.1 µg/mL (≈ 72.1 µM).
As to `O=C(OCC1CCSCC1)c1cccc(-n2cccn2)n1`, the MDR1-MDCK efflux ratio was determined as 0.495; the intrinsic clearance, human liver microsomes is 679 mL/min/kg; the intrinsic clearance, rat liver microsomes amounted to 2200 mL/min/kg.
For `O=S(=O)(c1ccccc1Cl)N1CCCc2cnc(N3CCOCC3)nc21`, the MDR1-MDCK efflux ratio turned out to be 0.697 and the aqueous solubility turned out to be 1 µg/mL (≈ 2.53 µM).
As to `Nc1ncc(C(=O)NC2CN(C(=O)C3CC3)C2)c2ccc(-c3cccc(F)c3)nc12`, the MDR1-MDCK efflux ratio stood at 18.1; the fraction unbound, human plasma is 0.042; the fraction unbound, rat plasma is 0.0241; the intrinsic clearance, human liver microsomes is at most 4.74 mL/min/kg. This compound also yielded an intrinsic clearance, rat liver microsomes of 29.5 mL/min/kg and an aqueous solubility of 7.6 µg/mL (≈ 18.7 µM).
The compound `CN(Cc1c(F)cccc1Cl)C(=O)C1(C#N)CCCC1` registered an intrinsic clearance, human liver microsomes of 111 mL/min/kg; an intrinsic clearance, rat liver microsomes of 1250 mL/min/kg; an aqueous solubility of 35.2 µg/mL (≈ 120 µM).
On to `COc1ccc(-c2ccc(CN(CCN(C)C)Cc3ccncc3)cc2)cc1`, for which the MDR1-MDCK efflux ratio turned out to be 2.06; the intrinsic clearance, human liver microsomes is 31.9 mL/min/kg; the intrinsic clearance, rat liver microsomes worked out at 465 mL/min/kg; the aqueous solubility is 55.8 µg/mL (≈ 149 µM).
With `COc1ccc(C(=O)Nc2cc(-c3ccc(F)c(F)c3)no2)cc1`, the MDR1-MDCK efflux ratio came to 0.43 and the aqueous solubility was 0.35 µg/mL (≈ 1.06 µM).
For the compound `CN(CC(=O)Nc1ccncc1)C1CCCC1`, the MDR1-MDCK efflux ratio turned out to be 0.484; the intrinsic clearance, human liver microsomes is at most 4.74 mL/min/kg; the intrinsic clearance, rat liver microsomes was 393 mL/min/kg; the aqueous solubility is 40.8 µg/mL (≈ 175 µM).
The matching figures for `Cc1nn(Cc2cccc(Br)c2)c(C)c1C(=O)O`: 1.58, at most 4.74 mL/min/kg, at most 10.7 mL/min/kg and 51.4 µg/mL (≈ 166 µM).
Consider `Cc1cc(C(=O)NCC2CC2)n2nccc2n1`, for which the MDR1-MDCK efflux ratio stood at 0.576; the intrinsic clearance, human liver microsomes amounted to 25.7 mL/min/kg; the intrinsic clearance, rat liver microsomes is 74.9 mL/min/kg; the aqueous solubility was 50.4 µg/mL (≈ 219 µM).
As to `CN[C@@H](C)C(=O)N[C@H](C(=O)N1CCC[C@H]1C(=O)Nc1snnc1-c1ccccc1)C1CCCCC1`, the MDR1-MDCK efflux ratio stood at 47.8.
In turn, `Nc1c(F)ccc2cnc(-n3ccc4ccncc43)cc12` yielded a fraction unbound, human plasma of 0.0517; a fraction unbound, rat plasma of 0.0428; an intrinsic clearance, human liver microsomes of 368 mL/min/kg; an intrinsic clearance, rat liver microsomes of 2360 mL/min/kg.
Consider `CC(=O)N1CCc2c(sc(NC(=O)C(C)C)c2-c2nc3ccccc3s2)C1`, for which the intrinsic clearance, human liver microsomes stood at 24.9 mL/min/kg and the intrinsic clearance, rat liver microsomes worked out at 228 mL/min/kg.
As for `O=C(CC/C=C/c1ccccc1)Nc1ccccc1N1CCOC1=O`, the MDR1-MDCK efflux ratio amounted to 2.45; the intrinsic clearance, human liver microsomes is 32.6 mL/min/kg; the intrinsic clearance, rat liver microsomes came out at 776 mL/min/kg.
The matching figures for `CC(C)c1ccc(CN2CCN(C(=O)C3CCN(C(=O)C4CC4)CC3)CC2)cc1`: 2.65, 32.1 mL/min/kg and 379 mL/min/kg.
The matching figures for `COc1cc(OC)c(OC)cc1CNC(C)(C)C`: 4.78, at most 4.74 mL/min/kg and 110 mL/min/kg.
The compound `Cc1noc(Cc2ccc(C)c(O)c2)n1` returned an intrinsic clearance, human liver microsomes of 10.7 mL/min/kg and an intrinsic clearance, rat liver microsomes of 52.2 mL/min/kg.
Turning to `O=C(O)c1ccccc1-c1ccc(CN2CCCCC2)cc1`, the MDR1-MDCK efflux ratio stood at 4.17; the intrinsic clearance, human liver microsomes was at most 4.74 mL/min/kg; the intrinsic clearance, rat liver microsomes came to 54.3 mL/min/kg; the aqueous solubility stood at 91.9 µg/mL (≈ 311 µM).
The matching figures for `O=C1CN(C(=O)c2cccc(Oc3cccc(C(F)(F)F)c3)c2)CCN1`: 8.39, 5.25 mL/min/kg, 66.1 mL/min/kg and 39 µg/mL (≈ 107 µM).
As to `Cc1cc(F)ccc1C(=O)NCc1ccc(O)c(O)c1`, the intrinsic clearance, human liver microsomes was at most 4.74 mL/min/kg; the intrinsic clearance, rat liver microsomes amounted to 83.9 mL/min/kg; the aqueous solubility was 40.5 µg/mL (≈ 147 µM).
On to `O=C(c1cccc(N2CCNC2=O)c1)N1CCc2ccccc2C1`, for which the MDR1-MDCK efflux ratio was 5.72; the intrinsic clearance, human liver microsomes worked out at 12.8 mL/min/kg; the intrinsic clearance, rat liver microsomes was found to be 322 mL/min/kg; the aqueous solubility was 42.3 µg/mL (≈ 132 µM).
With `COc1ccc(OC)c(C(=O)/C=C/c2ccccc2)c1`, the intrinsic clearance, human liver microsomes came out at 163 mL/min/kg and the intrinsic clearance, rat liver microsomes worked out at 1960 mL/min/kg.
As to `COc1cccc(OCCCn2cncc2-c2cc3c(cc2C)n(C)c(=O)n3C)c1`, the MDR1-MDCK efflux ratio is 143; the intrinsic clearance, human liver microsomes was 38.4 mL/min/kg; the intrinsic clearance, rat liver microsomes is 352 mL/min/kg; the aqueous solubility worked out at 55.4 µg/mL (≈ 136 µM).
The matching figures for `Fc1ccccc1-c1noc(-c2ccc(NCCc3cnccn3)nc2)n1`: 0.142, 10.2 mL/min/kg, 749 mL/min/kg and 5.51 µg/mL (≈ 15.2 µM).

One may read the aqueous solubility as how much of the substance goes into solution per volume.
